In the test the test system is BDF1 mice, P388 leukemia ip, median survival T/C. The test can be described thus: NCI In Vivo Anticancer Drug Screen. Data for tumor model P388 Leukemia (intraperitoneal) in B6D2F1 (BDF1) mice. Conditions: endpoint: median survival time, higher = longer survival. In short, it runs like this: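 T/C = treated-group survival ÷ vehicle-control survival; tumour transplanted into mice before dosing.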

The mark [1] stands for this setting: dose: 25.0 mg/kg/injection, schedule: Q01DX009 (ip), vehicle: saline with Tween-80.
Where [2] appears, read: dose: 50.0 mg/kg/injection, schedule: Q01DX009 (ip), vehicle: saline with Tween-80.
[3] abbreviates: dose: 100.0 mg/kg/injection, schedule: Q01DX009 (ip), vehicle: saline with Tween-80.
Setting [4] is: dose: 100.0 mg/kg/injection, schedule: Q04DX003 (ip), vehicle: saline with Tween-80.
Setting [5] is: dose: 200.0 mg/kg/injection, schedule: Q01DX009 (ip), vehicle: saline with Tween-80.
[6] abbreviates: dose: 200.0 mg/kg/injection, schedule: Q04DX003 (ip), vehicle: saline with Tween-80.
The mark [7] stands for this setting: dose: 400.0 mg/kg/injection, schedule: Q01DX009 (ip), vehicle: saline with Tween-80.
Setting [8] is: dose: 400.0 mg/kg/injection, schedule: Q04DX003 (ip), vehicle: saline with Tween-80.
Where [9] appears, read: dose: 50.0 mg/kg/injection, schedule: Q01DX005 (ip), vehicle: saline with Tween-80.
Where [10] appears, read: dose: 100.0 mg/kg/injection, schedule: Q01DX005 (ip), vehicle: saline with Tween-80.
The mark [11] stands for this setting: dose: 200.0 mg/kg/injection, schedule: Q01DX005 (ip), vehicle: saline with Tween-80.
Setting [12] is: dose: 100.0 mg/kg/injection, schedule: Q01DX009 (ip), vehicle: Klucel (hydroxypropylcellulose) (HPC).
Where [13] appears, read: dose: 100.0 mg/kg/injection, schedule: Q01DX001 (ip), vehicle: Klucel (hydroxypropylcellulose) (HPC).
Where [14] appears, read: dose: 100.0 mg/kg/injection, schedule: Q04DX003 (ip), vehicle: Klucel (hydroxypropylcellulose) (HPC).
Setting [15] is: dose: 200.0 mg/kg/injection, schedule: Q01DX001 (ip), vehicle: Klucel (hydroxypropylcellulose) (HPC).
The mark [16] stands for this setting: dose: 200.0 mg/kg/injection, schedule: Q01DX009 (ip), vehicle: Klucel (hydroxypropylcellulose) (HPC).
Setting [17] is: dose: 200.0 mg/kg/injection, schedule: Q04DX003 (ip), vehicle: Klucel (hydroxypropylcellulose) (HPC).
[18] abbreviates: dose: 400.0 mg/kg/injection, schedule: Q01DX001 (ip), vehicle: Klucel (hydroxypropylcellulose) (HPC).
Where [19] appears, read: dose: 400.0 mg/kg/injection, schedule: Q01DX009 (ip), vehicle: Klucel (hydroxypropylcellulose) (HPC).
The mark [20] stands for this setting: dose: 400.0 mg/kg/injection, schedule: Q04DX003 (ip), vehicle: Klucel (hydroxypropylcellulose) (HPC).
Setting [21] is: dose: 100.0 mg/kg/injection, schedule: Q04DX003 (ip), vehicle: saline sonified.

Where “and” joins values, the source holds several entries; their conditions need not be identical. Equal entries are not always repeated. Inconclusive results and toxic doses are left out.

On to `CCOC(=O)C(=CNc1ccccc1OC)C(=O)OCC`, for which the T/C reads like this: (dose: 1.56 mg/kg/injection, schedule: Q01DX009 (ip), vehicle: saline with Tween-80) 112 % of control; (dose: 3.12 mg/kg/injection, schedule: Q01DX009 (ip), vehicle: saline with Tween-80) 104 % of control; (dose: 6.25 mg/kg/injection, schedule: Q01DX009 (ip), vehicle: saline with Tween-80) 102 % of control; (dose: 12.5 mg/kg/injection, schedule: Q01DX009 (ip), vehicle: saline with Tween-80) 102 % of control and 116 % of control; under setting [1], 98 % of control and 123 % of control; under setting [2], 100 % of control and 116 % of control and 121 % of control. The T/C was 99 % of control (dose: 50.0 mg/kg/injection, schedule: Q04DX003 (ip), vehicle: saline with Tween-80); 102 % of control and 114 % of control under setting [3]; 96 % of control under setting [4]; 109 % of control under setting [5]; 96 % of control under setting [6]; 106 % of control under setting [7]. Besides, the T/C under setting [8] is 96 % of control.
With `[Cl][Hg][CH]1CCCC2OC(C(Cl)(Cl)Cl)OC21` (centres undefined), the T/C (dose: 0.2 mg/kg/injection, schedule: Q01DX001 (ip), vehicle: saline with Tween-80) was 111 % of control; the T/C (dose: 0.4 mg/kg/injection, schedule: Q01DX001 (ip), vehicle: saline with Tween-80) was 109 % of control; the T/C (dose: 0.78 mg/kg/injection, schedule: Q01DX001 (ip), vehicle: saline with Tween-80) was 101 % of control; the T/C (dose: 0.8 mg/kg/injection, schedule: Q01DX001 (ip), vehicle: saline with Tween-80) is 109 % of control; the T/C (dose: 1.6 mg/kg/injection, schedule: Q01DX001 (ip), vehicle: saline with Tween-80) was 116 % of control.
For `Nc1cc(=O)n(Cc2ccco2)c(=S)[nH]1`, the T/C is, setting by setting: under setting [9], 93 % of control; under setting [10], 102 % of control; under setting [11], 100 % of control.
As for `COc1cc(OC)cc(C(=O)Br)c1`, the T/C is, setting by setting: under setting [3], 91 % of control; under setting [4], 90 % of control; under setting [5], 91 % of control; under setting [6], 90 % of control; under setting [7], 91 % of control; under setting [8], 95 % of control.
In the case of `ClCCN(CCCl)CCOc1ccc(-c2nc3ccccc3[nH]2)cc1`, the T/C (dose: 12.5 mg/kg/injection, schedule: Q04DX002 (ip), vehicle: saline) was 189 % of control.
Turning to `O=C1c2ccccc2C(=O)N1/N=C/C=C/c1ccccc1`, the T/C is, setting by setting: (dose: 87.5 mg/kg/injection, schedule: Q01DX009 (ip), vehicle: saline with Tween-80) 106 % of control; (dose: 175.0 mg/kg/injection, schedule: Q01DX009 (ip), vehicle: saline with Tween-80) 95 % of control; (dose: 350.0 mg/kg/injection, schedule: Q01DX009 (ip), vehicle: saline with Tween-80) 87 % of control.
Regarding `O=C(C[n+]1cc2ccccc2c2ccccc21)c1ccccc1`, the T/C is 104 % of control (dose: 25.0 mg/kg/injection, schedule: Q01DX009 (ip), vehicle: Klucel (hydroxypropylcellulose) (HPC)); 100 % of control and 108 % of control (dose: 35.0 mg/kg/injection, schedule: Q01DX009 (ip), vehicle: Klucel (hydroxypropylcellulose) (HPC)); 100 % of control and 120 % of control (dose: 50.0 mg/kg/injection, schedule: Q01DX009 (ip), vehicle: Klucel (hydroxypropylcellulose) (HPC)); 115 % of control (dose: 75.0 mg/kg/injection, schedule: Q01DX009 (ip), vehicle: Klucel (hydroxypropylcellulose) (HPC)); 114 % of control under setting [12].
For `CC1=C2C(=O)c3ccccc3C2=C(C)S(=O)(=O)O1`, the T/C is 119 % of control (dose: 50.0 mg/kg/injection, schedule: Q01DX009 (ip), vehicle: carboxymethylcellulose (CMC)); 90 % of control (dose: 100.0 mg/kg/injection, schedule: Q01DX009 (ip), vehicle: carboxymethylcellulose (CMC)); 122 % of control under setting [4].
In the case of `CCOC12c3c4cccc3C(=O)c3cccc(c31)C(=O)c1cccc(c12)C4=O`, the T/C is, setting by setting: under setting [13], 95 % of control; under setting [12], 100 % of control; under setting [14], 100 % of control; under setting [15], 100 % of control; under setting [16], 100 % of control; under setting [17], 100 % of control. Besides, the T/C reads like this: under setting [18], 109 % of control; under setting [19], 90 % of control; under setting [20], 91 % of control.
As for `O=[N+]([O-])c1ccc([I+]c2ccccc2)cc1`, the T/C reads like this: (dose: 1.5 mg/kg/injection, schedule: Q04DX003 (ip), vehicle: saline sonified) 100 % of control; (dose: 5.5 mg/kg/injection, schedule: Q01DX009 (ip), vehicle: saline with Tween-80) 150 % of control; (dose: 8.25 mg/kg/injection, schedule: Q01DX009 (ip), vehicle: saline with Tween-80) 154 % of control; (dose: 12.0 mg/kg/injection, schedule: Q04DX003 (ip), vehicle: saline sonified) 118 % of control; (dose: 16.5 mg/kg/injection, schedule: Q04DX003 (ip), vehicle: saline) 150 % of control; under setting [1], 154 % of control. Further, the T/C was 150 % of control under setting [2], 158 % of control under setting [3] and 150 % of control under setting [21].
For the molecule `O=[N+]([O-])c1cc2c3ccccc3ccc2c2ccccc12`, the T/C was 104 % of control under setting [12]; 100 % of control under setting [14]; 100 % of control under setting [16]; 100 % of control under setting [17]; 104 % of control under setting [19]; 100 % of control under setting [20].
Turning to `O=CC12Cc3ccccc3C1CCC1(C2)OCCO1` (centres undefined), the T/C runs as follows: under setting [21], 90 % of control; (dose: 200.0 mg/kg/injection, schedule: Q04DX003 (ip), vehicle: saline sonified) 110 % of control; (dose: 400.0 mg/kg/injection, schedule: Q04DX003 (ip), vehicle: saline sonified) 110 % of control.
For `CC1CCC2(C(=O)O)CCC3(C)C(=CCC4C5(C)CCC(O)C(C)(C)C5CCC43C)C2C1C` (centres undefined), the T/C (dose: 100.0 mg/kg/injection, schedule: Q01DX010 (ip), vehicle: acetone) was 120 % of control; the T/C (dose: 200.0 mg/kg/injection, schedule: Q01DX010 (ip), vehicle: acetone) is 115 % of control; the T/C (dose: 400.0 mg/kg/injection, schedule: Q01DX010 (ip), vehicle: acetone) is 120 % of control.
Consider `C=CC(C)C(C)(OCc1ccccc1)C(=O)O` (centres undefined), for which the T/C reads like this: under setting [9], 100 % of control; under setting [10], 113 % of control; under setting [11], 106 % of control.
Consider `OC1(CSc2ccccc2)C=CCCC1` (centres undefined), for which the T/C was 97 % of control and 111 % of control under setting [1]; 98 % of control and 112 % of control and 113 % of control under setting [2]; 109 % of control and 112 % of control and 121 % of control under setting [3]; 111 % of control and 119 % of control and 120 % of control under setting [5].
With `O=C(c1cc(C(F)(F)F)cc(C(F)(F)F)c1)N1CC1`, the T/C is 100 % of control (dose: 3.12 mg/kg/injection, schedule: Q01DX009 (ip), vehicle: water); 105 % of control (dose: 6.25 mg/kg/injection, schedule: Q01DX009 (ip), vehicle: water); 114 % of control (dose: 12.5 mg/kg/injection, schedule: Q01DX009 (ip), vehicle: water); 100 % of control (dose: 25.0 mg/kg/injection, schedule: Q01DX009 (ip), vehicle: water); 110 % of control (dose: 50.0 mg/kg/injection, schedule: Q01DX009 (ip), vehicle: water).
As for `CS(=O)(=O)Nc1ccc(NS(C)(=O)=O)c(SCc2ccccc2)c1`, the T/C is, setting by setting: under setting [13], 100 % of control; under setting [15], 100 % of control; under setting [18], 100 % of control.
